According to ChEMBL document CHEMBL1201862, “PubChem BioAssay data set” (2004):
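Protocol summary: plate cells (96-well), add compound at 5 concentrations, incubate 48 h, interpolate endpoints linearly. Here, GI50 denotes the concentration required for 50% inhibition of growth.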 Active and inactive are the calls of the source. Cut-off read from the data, not from the text of the source: active = GI50 up to about 1.1 µM and inactive = higher.

Assays:
Assay in all cases: NCI tumour cell line growth inhibition, 48 h
EKVX = tested on: EKVX
RXF 631 = tested on: RXF 631
SNB-75 = tested on: SNB-75
SK-OV-3 = tested on: SK-OV-3
M14 = tested on: M14
MOLT-4 = tested on: MOLT-4
NCI-H460 = tested on: NCI-H460
TK-10 = tested on: TK-10
OVCAR-5 = tested on: OVCAR-5
SF-539 = tested on: SF-539
SNB-19 = tested on: SNB-19
OVCAR-8 = tested on: OVCAR-8
DLD-1 = tested on: DLD-1
SK-MEL-28 = tested on: SK-MEL-28
UACC-62 = tested on: UACC-62
SF-268 = tested on: SF-268
A498 = tested on: A498
RPMI-8226 = tested on: RPMI-8226
SF-295 = tested on: SF-295
SN12C = tested on: SN12C
SW-620 = tested on: SW-620
HCC 2998 = tested on: HCC 2998
IGROV-1 = tested on: IGROV-1
CCRF-CEM = tested on: CCRF-CEM
A549 = tested on: A549
UACC-257 = tested on: UACC-257
DMS-114 = tested on: DMS-114
CAKI-1 = tested on: CAKI-1
U-251 = tested on: U-251
KM-20L2 = tested on: KM-20L2
OVCAR-4 = tested on: OVCAR-4
RXF 393 = tested on: RXF 393
HOP-92 = tested on: HOP-92
UO-31 = tested on: UO-31
NCI-H522 = tested on: NCI-H522
HOP-62 = tested on: HOP-62
NCI-H226 = tested on: NCI-H226
K562 = tested on: K562
SK-MEL-5 = tested on: SK-MEL-5
M19-MEL = tested on: M19-MEL
Malme-3M = tested on: Malme-3M
SR = tested on: SR
KM12 = tested on: KM12
NCI-H23 = tested on: NCI-H23
SNB-78 = tested on: SNB-78
ACHN = tested on: ACHN
786-0 = tested on: 786-0
COLO 205 = tested on: COLO 205
DMS-273 = tested on: DMS-273
HT-29 = tested on: HT-29
HCT-15 = tested on: HCT-15
HCT-116 = tested on: HCT-116
LXFL 529 = tested on: LXFL 529
SK-MEL-2 = tested on: SK-MEL-2
OVCAR-3 = tested on: OVCAR-3
HOP-18 = tested on: HOP-18
LOX IMVI = tested on: LOX IMVI
HL-60 = tested on: HL-60
XF498 = tested on: XF498

Measured: GI50

Cc1cccc2c1c1ccc3c(c1n2C)C(=O)C=CC3=O
5.18 µM: HCT-15
active: MOLT-4 0.536 µM | CCRF-CEM 0.468 µM | HL-60 0.521 µM
inactive: EKVX 18.9 µM | RXF 631 6.79 µM | SNB-75 19.5 µM | SK-OV-3 20.1 µM | M14 6.22 µM | NCI-H460 17.3 µM | TK-10 2.79 µM | OVCAR-5 15.9 µM | SF-539 4.56 µM | SNB-19 16.7 µM | OVCAR-8 5.37 µM | DLD-1 2.28 µM | SK-MEL-28 9.71 µM | UACC-62 13.2 µM | SF-268 14 µM | A498 27.4 µM | RPMI-8226 2.04 µM | SF-295 16.3 µM | SN12C 6.17 µM | SW-620 2.03 µM | HCC 2998 18.2 µM | IGROV-1 18.3 µM | A549 18.9 µM | UACC-257 11.4 µM | DMS-114 6.35 µM | CAKI-1 3.2 µM | U-251 10.3 µM | KM-20L2 16.2 µM | OVCAR-4 11.8 µM | RXF 393 3.48 µM | HOP-92 2.08 µM | UO-31 3.4 µM | NCI-H522 1.51 µM | HOP-62 19 µM | NCI-H226 17.3 µM | K562 1.95 µM | SK-MEL-5 14.8 µM | M19-MEL 5.33 µM | Malme-3M 4.33 µM | SR 1.43 µM | KM12 13.2 µM | NCI-H23 13.5 µM | SNB-78 16.2 µM | ACHN 7.73 µM | 786-0 1.94 µM | COLO 205 2.39 µM | DMS-273 3.11 µM | HT-29 3.47 µM | HCT-116 5.86 µM | LXFL 529 2.01 µM | SK-MEL-2 15.6 µM | OVCAR-3 2.05 µM | HOP-18 10 µM | LOX IMVI 4.94 µM

CCN(CC)CCCNc1nccc2c(C)c3[nH]c4ccncc4c(=O)c3cc12
active: MOLT-4 0.33 µM | OVCAR-8 0.557 µM | SF-268 0.643 µM | CCRF-CEM 0.746 µM | DMS-114 0.494 µM | OVCAR-4 0.604 µM | RXF 393 0.558 µM | NCI-H522 0.52 µM | SR 0.13 µM | 786-0 0.977 µM | HCT-116 0.514 µM | LOX IMVI 0.975 µM
8.71 µM: HCT-15
inactive: EKVX 5.68 µM | RXF 631 1.92 µM | SNB-75 2.24 µM | SK-OV-3 3.77 µM | M14 2.84 µM | NCI-H460 1.71 µM | TK-10 3.18 µM | OVCAR-5 3.72 µM | SF-539 2.45 µM | SNB-19 2.87 µM | DLD-1 1.79 µM | SK-MEL-28 3.27 µM | UACC-62 1.53 µM | A498 7.28 µM | RPMI-8226 2.64 µM | SF-295 3.64 µM | SN12C 1.5 µM | SW-620 1.84 µM | HCC 2998 2.37 µM | IGROV-1 2.93 µM | A549 3.01 µM | UACC-257 6.84 µM | CAKI-1 1.91 µM | U-251 2.19 µM | KM-20L2 4.11 µM | HOP-92 1.75 µM | UO-31 9.79 µM | HOP-62 3.11 µM | XF498 2.46 µM | NCI-H226 2.24 µM | K562 2.61 µM | SK-MEL-5 3.57 µM | Malme-3M 3.83 µM | KM12 3.52 µM | NCI-H23 1.95 µM | SNB-78 2.2 µM | ACHN 1.8 µM | COLO 205 2.55 µM | DMS-273 2.19 µM | HT-29 1.32 µM | LXFL 529 1.48 µM | SK-MEL-2 2.89 µM | OVCAR-3 1.8 µM | HOP-18 2.52 µM | HL-60 2.79 µM
